Common to all, as to assay type: biochemical
In test [1] the target is T1, CYP1A2 (Homo sapiens, UniProt P05177).
T1 construct: 0.1 mg/mL protein human liver microsomes (BD Gentest); tissue BD Gentest; host or cells: human liver microsomes
T1 sequence (P05177 1-516): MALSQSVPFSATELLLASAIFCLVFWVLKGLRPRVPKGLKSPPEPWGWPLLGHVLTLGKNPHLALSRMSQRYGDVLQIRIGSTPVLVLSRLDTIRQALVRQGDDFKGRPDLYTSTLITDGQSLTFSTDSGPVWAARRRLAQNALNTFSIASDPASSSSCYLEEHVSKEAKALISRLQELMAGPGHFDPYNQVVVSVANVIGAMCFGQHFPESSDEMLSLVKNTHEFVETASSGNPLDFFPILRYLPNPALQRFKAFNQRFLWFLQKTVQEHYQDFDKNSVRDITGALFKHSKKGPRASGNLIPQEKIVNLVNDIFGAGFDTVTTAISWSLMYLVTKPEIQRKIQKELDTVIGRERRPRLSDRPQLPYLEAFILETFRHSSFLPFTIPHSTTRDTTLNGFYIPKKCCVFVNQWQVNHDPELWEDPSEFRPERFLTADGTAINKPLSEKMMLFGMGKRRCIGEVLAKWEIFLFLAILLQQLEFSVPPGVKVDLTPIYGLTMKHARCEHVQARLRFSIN
Description: Cocktail assay for CYPs, phenacetin O-deethylation (CYP1A2), human liver microsomes. As to conditions: 10 μM phenacetin, 0.1 mg/mL human liver microsomes, 10 min at 37° C.; read-out: CYP IC50 (nM) 1A2. The procedure: (§1) Determination of IC50 in a Cocktail Assay for CYPs 1A2, 2C9, 2C19, 2D6 and 3A4:
(§2) This assay was performed in a standard 96-well plate design. IC50 values were calculated from the percent inhibition observed for each test compound at 6 concentrations (for example, 0.0032, 0.016, 0.08, 0.4, 2 and 10 μM). The incubation substrate mix contains 10 μM phenacetin (1A2), 5 μM diclofenac (2C9), 30 μM mephenytoin (2C19), 5 μM dextromethorphan (2D6) and 2 μM midazolam (3A4), 0.1 mg/mL protein human liver microsomes (BD Gentest), 1 mM NAPDH, 3.3 mM MgCl2 and 100 mM potassium phosphate buffer (pH 7.4). The production of the metabolite of each probe substrate was determined after incubation for 10 min at 37° C. Quantitation of the metabolite peak area ratio against an internal standard (tolbutamide) was determined by LC/MS/MS analysis following acetonitrile treatment of the incubations.
(§3) Samples were analyzed in the MRM mode with a SCIEX API-4000 mass spectrometer (Applied Biosystems, Foster City, Calif.), with a Shimadzu LC-20 AD pump (Shimadzu corporation, Kyoto, JP) and a CTC PAL autosampler (Agilent Technologies, Switzerland). A Phenomenex, Luna, […], 100 A, 2.00×30 mm HPLC column was used for the separation. The mobile phases were: (A) 0.1% formic acid in water and (B) 0.1% formic acid in acetonitrile. The binary gradient was as follows.
(§4) The peak area ratio of the analyte to the internal standard was used to quantify the metabolite. The values of peak area ratios in the presence of test compound were compared to those of maximum or minimum controls and were expressed as % inhibition by interpolating between the maximum and minimum peak area ratios. Incubations with no inhibitor were defined as the maxima. The following equation was used to calculate the % inhibition: [1−[(X−Low control)/(High control−Low control)]]*100 For the IC50 calculation, SigmaPlot was used to plot the mean % inhibition versus the test compound concentrations and for non-linear regression analysis of the data. Depending on the range of data points defining the inhibition curve, the data may have been fit to the 4-parameter logistic equation.
A general note: Liver microsomes are vesicles of endoplasmic reticulum, rich in cytochrome P450 enzymes.

Test [2] has as its target T2, CYP2C9 (Homo sapiens, UniProt P11712).
T2 construct: 0.1 mg/mL protein human liver microsomes (BD Gentest); tissue BD Gentest; host or cells: human liver microsomes
Description: Cocktail assay for CYPs, diclofenac 4′-hydroxylation (CYP2C9), human liver microsomes. As to conditions: 5 μM diclofenac, 0.1 mg/mL human liver microsomes, 10 min at 37° C.; read-out: CYP IC50 (nM) 2C9. The procedure:
as §1
as §2, with “IC50 values were calculated from the percent inhibition observed for each test compound at 6 concentrations (for example, 0.0032, 0.016, 0.08, 0.4, 2 and 10 μM).” left out
as §3, §4

Test [3] has as its target T3, CYP2C19 (Homo sapiens, UniProt P33261).
T3 construct: 0.1 mg/mL protein human liver microsomes (BD Gentest); tissue BD Gentest; host or cells: human liver microsomes
Nature of the test: Cocktail assay for CYPs, mephenytoin 4′-hydroxylation (CYP2C19), human liver microsomes. The following applies: 30 μM mephenytoin, 0.1 mg/mL human liver microsomes, 10 min at 37° C.; read-out: CYP IC50 (nM) 2C19. Here is the method:
as §1
as §2, with “IC50 values were calculated from the percent inhibition observed for each test compound at 6 concentrations (for example, 0.0032, 0.016, 0.08, 0.4, 2 and 10 μM).” left out
as §3, §4

For test [4], the target named is T4, CYP2D6 (Homo sapiens, UniProt P10635).
T4 construct: 0.1 mg/mL protein human liver microsomes (BD Gentest); tissue BD Gentest; host or cells: human liver microsomes
Description: Cocktail assay for CYPs, dextromethorphan O-demethylation (CYP2D6), human liver microsomes. As to conditions: 5 μM dextromethorphan, 0.1 mg/mL human liver microsomes, 10 min at 37° C.; read-out: CYP IC50 (nM) 2D6. The procedure: as §1, §2, §3, §4

Test [5] addresses T5, CYP3A4 (Homo sapiens, UniProt P08684). Description: Cocktail assay for CYPs, midazolam 1′-hydroxylation (CYP3A4), human liver microsomes. As to conditions: 2 μM midazolam, 0.1 mg/mL human liver microsomes, 10 min at 37° C.; read-out: CYP IC50 (nM) 3A4 (MDZ). The arrangement: 0.1 mg/mL protein human liver microsomes (BD Gentest); tissue BD Gentest; host or cells: human liver microsomes. The procedure: as §1, §2, §3, §4
Target sequence in this assay (P08684 whole entry): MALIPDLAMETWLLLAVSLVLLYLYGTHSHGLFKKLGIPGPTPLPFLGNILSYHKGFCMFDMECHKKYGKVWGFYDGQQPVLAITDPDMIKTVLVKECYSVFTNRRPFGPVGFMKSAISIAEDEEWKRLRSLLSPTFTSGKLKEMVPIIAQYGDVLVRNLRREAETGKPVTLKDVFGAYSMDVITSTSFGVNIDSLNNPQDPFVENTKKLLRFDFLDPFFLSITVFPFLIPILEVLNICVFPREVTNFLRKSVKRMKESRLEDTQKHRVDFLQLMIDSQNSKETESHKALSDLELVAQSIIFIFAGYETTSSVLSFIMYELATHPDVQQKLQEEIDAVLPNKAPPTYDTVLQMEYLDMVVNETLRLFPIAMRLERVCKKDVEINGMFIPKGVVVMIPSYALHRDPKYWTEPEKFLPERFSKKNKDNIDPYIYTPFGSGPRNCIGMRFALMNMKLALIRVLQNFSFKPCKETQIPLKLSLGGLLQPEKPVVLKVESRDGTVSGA

In test [6] the target is T5, CYP3A4. Description: IC50 vs CYP3A by inhibition of lopinavir metabolism in human liver microsomes. The arrangement: 0.01 mg/mL protein human liver microsomes (BD Gentest); tissue BD Gentest; host or cells: human liver microsomes. As to conditions: 1.5 μM lopinavir, 0.01 mg/mL human liver microsomes, 8 min at 37° C.; read-out: CYP IC50 (nM) 3A4 (LPV). The procedure: Determination of IC50 vs CYP3A by Measurement of Inhibition of Lopinavir Metabolism
This assay was performed in a standard 96-well plate design. IC50 values were calculated from the percent inhibition observed for each test compound at 6 concentrations (for example, 0.098, 0.391, 1.56, 6.25, 25 and 100 nM). The incubation substrate mix contains 1.5 μM lopinavir, 0.01 mg/mL protein human liver microsomes (BD Gentest), 1 mM NAPDH, 3.3 mM MgCl2 and 100 mM potassium phosphate buffer (pH 7.4). The production of the sum of three hydroxylated metabolites (M2: 6-hydroxy lopinavir, M3: 4-hydroxy lopinavir, M4: 4-hydroxy lopinavir (epimer of M3), Kumar et al., 1999) was determined after incubation for 8 min at 37° C. Quantitation of the metabolite peak area ratio against an internal standard (tolbutamide) was determined by LC/MS/MS analysis following acetonitrile treatment of the incubations.
Samples were analyzed in the MRM mode with a SCIEX API-4000 mass spectrometer (Applied Biosystems, Foster City, Calif.), with a Shimadzu LC-20 AD pump (Shimadzu corporation, Kyoto, JP) and a CTC PAL autosampler (Agilent Technologies, Switzerland). A Phenomenex, Luna, 5 μm, 100 A, 2.00×30 mm HPLC column was used for the separation. The mobile phases were: (A) 0.1% formic acid in water and (B) 0.1% formic acid in acetonitrile. The binary gradient was as follows.
The peak area ratio of the analyte to the internal standard was used to quantify the metabolite. The values of peak area ratios in the presence of test compound were compared to those of maximum or minimum controls and were expressed as % inhibition by interpolating between the maximum and minimum peak area ratios. Incubations with no inhibitor were defined as the maxima and with 5 μM ketoconazole were defined as the minima.
The following equation was used to calculate the % inhibition: [1−[(X−Low control)/(High control−Low control)]]*100
For the IC50 calculation, SigmaPlot was used to plot the mean % inhibition versus the test compound concentrations and for non-linear regression analysis of the data. Depending on the range of data points defining the inhibition curve, the data may have been fit to the 4-parameter logistic equation.
Target sequence in this assay (P08684 2-503): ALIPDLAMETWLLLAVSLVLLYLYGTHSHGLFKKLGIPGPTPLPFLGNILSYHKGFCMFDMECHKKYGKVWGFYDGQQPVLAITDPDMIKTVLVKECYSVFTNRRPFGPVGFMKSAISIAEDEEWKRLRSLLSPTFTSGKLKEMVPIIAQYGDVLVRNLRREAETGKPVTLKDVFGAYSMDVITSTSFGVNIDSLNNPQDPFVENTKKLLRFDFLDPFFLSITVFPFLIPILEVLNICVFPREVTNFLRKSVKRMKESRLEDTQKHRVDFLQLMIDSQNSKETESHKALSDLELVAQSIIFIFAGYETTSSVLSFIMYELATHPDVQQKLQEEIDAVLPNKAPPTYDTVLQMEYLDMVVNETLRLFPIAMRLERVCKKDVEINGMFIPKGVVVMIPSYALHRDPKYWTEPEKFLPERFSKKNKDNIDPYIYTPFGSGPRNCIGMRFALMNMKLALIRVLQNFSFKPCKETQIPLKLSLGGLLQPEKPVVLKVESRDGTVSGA

Among the data in patent publication US9975888B2, “Aryl linked imidazole and triazole derivatives and methods of use thereof for improving the pharmacokinetics of a drug” (MERCK SHARP & DOHME CORP., priority 2013, dated 2018) are IC50 values, retold here.

T4 sequence (P10635 whole entry): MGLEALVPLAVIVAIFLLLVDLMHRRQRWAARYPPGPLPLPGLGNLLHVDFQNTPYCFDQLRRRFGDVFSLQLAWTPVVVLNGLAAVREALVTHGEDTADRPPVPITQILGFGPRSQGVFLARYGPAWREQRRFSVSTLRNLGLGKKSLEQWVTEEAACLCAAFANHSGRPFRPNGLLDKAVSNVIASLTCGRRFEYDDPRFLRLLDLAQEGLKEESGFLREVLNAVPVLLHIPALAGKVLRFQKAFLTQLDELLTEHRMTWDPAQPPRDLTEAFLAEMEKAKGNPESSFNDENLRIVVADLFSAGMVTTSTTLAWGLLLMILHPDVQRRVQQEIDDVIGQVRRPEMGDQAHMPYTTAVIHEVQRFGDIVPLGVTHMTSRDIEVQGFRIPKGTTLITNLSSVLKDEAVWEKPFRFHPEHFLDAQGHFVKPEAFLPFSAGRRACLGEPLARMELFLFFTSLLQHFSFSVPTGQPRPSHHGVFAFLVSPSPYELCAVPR
T2 sequence (P11712 whole entry): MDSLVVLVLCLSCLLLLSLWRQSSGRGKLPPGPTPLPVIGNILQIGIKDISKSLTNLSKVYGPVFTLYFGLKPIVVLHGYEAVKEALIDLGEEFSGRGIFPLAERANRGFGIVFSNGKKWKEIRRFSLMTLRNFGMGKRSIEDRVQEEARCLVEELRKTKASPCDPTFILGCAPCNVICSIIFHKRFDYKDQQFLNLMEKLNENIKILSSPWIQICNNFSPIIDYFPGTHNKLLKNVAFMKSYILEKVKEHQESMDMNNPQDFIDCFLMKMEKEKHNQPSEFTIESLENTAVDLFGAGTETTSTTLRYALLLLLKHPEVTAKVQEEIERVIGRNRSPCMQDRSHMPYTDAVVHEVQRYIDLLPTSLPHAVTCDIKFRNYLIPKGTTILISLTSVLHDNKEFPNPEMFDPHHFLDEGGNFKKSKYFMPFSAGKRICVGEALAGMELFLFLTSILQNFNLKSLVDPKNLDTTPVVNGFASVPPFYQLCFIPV
T3 sequence (P33261 whole entry): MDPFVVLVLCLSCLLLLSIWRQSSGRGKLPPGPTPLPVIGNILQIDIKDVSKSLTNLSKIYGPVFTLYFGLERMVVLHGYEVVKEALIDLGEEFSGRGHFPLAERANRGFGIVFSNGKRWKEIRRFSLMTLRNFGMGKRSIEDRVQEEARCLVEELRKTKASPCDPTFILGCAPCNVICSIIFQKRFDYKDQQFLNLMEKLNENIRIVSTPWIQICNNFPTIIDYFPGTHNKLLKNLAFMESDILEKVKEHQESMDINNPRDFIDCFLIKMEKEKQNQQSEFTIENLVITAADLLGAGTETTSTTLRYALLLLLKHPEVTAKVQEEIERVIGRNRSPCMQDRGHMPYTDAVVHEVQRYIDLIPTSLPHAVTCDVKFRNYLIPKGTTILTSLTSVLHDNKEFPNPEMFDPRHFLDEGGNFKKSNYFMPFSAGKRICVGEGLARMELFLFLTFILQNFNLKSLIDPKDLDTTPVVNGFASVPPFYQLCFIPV

For `CN1CCN(c2ncc(S(=O)(=O)N3Cc4cccc(-c5cncn5CCc5ccc(F)cc5)c4C3)s2)CC1` [Compound 16, 5-((4-(1-(4-fluorophenethyl)-1H-imidazol-5-yl)isoindolin-2-yl)sulfonyl)-2-(4-methylpiperazin-1-yl)thiazole], the IC50 was determined as 3100 nM in test [1]; 486 nM in test [2]; 1260 nM in test [3]; 360 nM in test [4]; 13.2 nM in test [5]; 9.5 nM in test [6].

Regarding `CC(=O)Nc1ncc(S(=O)(=O)NCc2cccc(-c3cncn3CCc3ccc(F)cc3)c2)s1` [Compound 13, N-(5-(N-(3-(1-(4-fluorophenethyl)-1H-imidazol-5-yl)benzyl)sulfamoyl)thiazol-2-yl)acetamide], the IC50 is 99 nM in test [1]; 65 nM in test [2]; 357 nM in test [3]; 348 nM in test [4]; 5.9 nM in test [5]; 5.3 nM in test [6].

With `O=S(=O)(c1cnc(N2CCN3C[C@H](O)C[C@H]3C2)s1)N1CCCC1c1ccccc1-c1cncn1CCc1ccc(F)cc1` (single isomer, unassigned) [Compound 22a, (7R,8aS)-2-(5-(((R or S)-2-(2-(1-(4-fluoro-phenethyl)-1H-imidazol-5-yl)phenyl)pyrrolidin-1-yl)sulfonyl)thiazol-2-yl) octahydro-pyrrolo[1,2-a] pyrazin-7-ol], the IC50 is 7020 nM in test [1]; 6300 nM in test [2]; above 10000 nM in test [3]; 3940 nM in test [4]; 5.3 nM in test [5]; 1.4 nM in test [6].

With `CN1CCN(c2ncc(S(=O)(=O)N3CCc4c(cccc4-c4cncn4CCc4ccc(F)cc4)C3)s2)CC1` [Compound 58, 5-((5-(1-(4-fluorophenethyl)-1H-imidazol-5-yl)-3,4-dihydroisoquinolin-2(1H)-yl)sulfonyl)-2-(4-methylpiperazin-1-yl)thiazole], the 50% inhibitory concentration (IC50) in test [1] is above 10000 nM; in test [2], 1350 nM; in test [3], 2830 nM; in test [4], 2170 nM; in test [5] it was 4.5 nM; in test [6], 1.9 nM.

On to `O=C(c1cccnc1)N1CCCC1c1cccc(-c2cncn2CCc2ccc(F)cc2)c1` (single isomer, unassigned) [Compound 48a, (R or S)-(2-(3-(1-(4-fluorophenethyl)-1H-imidazol-5-yl)phenyl)pyrrolidin-1-yl) (pyridin-3-yl) methanone], for which the IC50 is 9300 nM in test [1]; above 10000 nM in test [2]; 5430 nM in test [3]; 6800 nM in test [4]; 24.2 nM in test [5]; 32.3 nM in test [6].

For the molecule `CN(C)c1ccc(S(=O)(=O)N2CCCC2c2ccccc2-c2cncn2CCc2ccc(F)cc2)cn1` (single isomer, unassigned) [Compound 28a, (R or S)-5-((2-(2-(1-(4-fluorophenethyl)-1H-imidazol-5-yl)phenyl)pyrrolidin-1-yl)sulfonyl)-N,N-dimethylpyridin-2-amine], the half-maximal inhibitory concentration (IC50) in test [1] is above 10000 nM; in test [2], 1520 nM; in test [3], 2390 nM; in test [4], 6990 nM; in test [5] it was 3.5 nM; in test [6] it was 0.7 nM.

Regarding `CS(=O)(=O)N1CCCC1c1ccccc1-c1cncn1CCc1ccc(F)cc1` (single isomer, unassigned) [Compound 23b, (R or S)-1-(4-fluorophenethyl)-5-(2-(1-(methylsulfonyl)pyrrolidin-2-yl)phenyl)-1H-imidazole], the IC50 is above 10000 nM in test [1]; above 10000 nM in test [2]; above 10000 nM in test [3]; above 10000 nM in test [4]; 17 nM in test [5]; 17.2 nM in test [6].

As for `CN1CCCC1c1ccccc1-c1cncn1CCc1ccc(F)cc1` (single isomer, unassigned) [Compound 45a, (R or S)-1-(4-fluorophenethyl)-5-(2-(1-methylpyrrolidin-2-yl)phenyl)-1H-imidazole], the IC50 in test [1] is above 10000 nM; in test [2] it was above 10000 nM; in test [3], 7790 nM; in test [4] it was 4220 nM; in test [5], 14.3 nM.

For the molecule `CN1CCCC1c1ccccc1-c1cncn1CCc1ccc(F)cc1` (single isomer, unassigned) [Compound 45b, (R or S)-1-(4-fluorophenethyl)-5-(2-(1-methylpyrrolidin-2-yl)phenyl)-1H-imidazole], the half-maximal inhibitory concentration (IC50) in test [1] is above 10000 nM; in test [2], above 10000 nM; in test [3], above 10000 nM; in test [4], 2480 nM; in test [5] it was 22.8 nM.

One may read the IC50 as the point on the concentration scale where inhibition reaches its midpoint.
